Results taken from publication PMC10528299, “Targeting FAK/PYK2 with SJP1602 for Anti-Tumor Activity in Triple-Negative Breast Cancer” (Current Issues in Molecular Biology, 2023).

Columns and labels:
Test in all cases: Eurofins kinase profiling
Type in all cases: biochemical
ATR/ATRIP(h) = target: T1, ATR/ATRIP(h) (Homo sapiens, UniProt Q13535); conditions: read-out: residual kinase activity ATR/ATRIP(h)
T1 construct: purchased Eurofins KinaseProfiler
Method in brief: (§1)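 At a fixed 1 µM, the compound was profiled against each kinase, whose activity was quantified through radiolabeled phosphate incorporation.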

DCAMKL3(h) = target: T2, DCAMKL3(h) (Homo sapiens, UniProt Q9C098); conditions: read-out: residual kinase activity DCAMKL3(h)
T2 construct: purchased Eurofins KinaseProfiler
T2 sequence (Q9C098 1-648): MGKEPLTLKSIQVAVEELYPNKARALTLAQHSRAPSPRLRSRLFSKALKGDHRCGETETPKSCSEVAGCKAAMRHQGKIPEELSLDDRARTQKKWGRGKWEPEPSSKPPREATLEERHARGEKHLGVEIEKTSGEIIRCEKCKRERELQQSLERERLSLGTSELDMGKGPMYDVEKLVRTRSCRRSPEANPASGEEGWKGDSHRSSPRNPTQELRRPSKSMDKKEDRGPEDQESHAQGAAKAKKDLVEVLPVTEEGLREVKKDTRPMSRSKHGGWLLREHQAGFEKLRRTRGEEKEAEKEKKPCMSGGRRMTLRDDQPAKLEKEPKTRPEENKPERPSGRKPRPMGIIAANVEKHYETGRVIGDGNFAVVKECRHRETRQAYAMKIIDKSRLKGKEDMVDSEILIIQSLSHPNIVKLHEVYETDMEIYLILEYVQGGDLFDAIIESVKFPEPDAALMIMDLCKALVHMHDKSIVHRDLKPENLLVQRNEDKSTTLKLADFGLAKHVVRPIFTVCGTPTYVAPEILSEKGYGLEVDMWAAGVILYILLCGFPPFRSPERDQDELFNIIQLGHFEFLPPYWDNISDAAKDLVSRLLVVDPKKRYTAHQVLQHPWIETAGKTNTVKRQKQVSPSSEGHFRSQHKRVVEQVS
Method in brief: as §1

EGFR(L858R)(h) = target: T3, EGFR(L858R)(h) (Homo sapiens, UniProt P00533, L858R); conditions: read-out: residual kinase activity EGFR(L858R)(h)
T3 construct: purchased Eurofins KinaseProfiler
Method in brief: as §1

IKKα(h) = target: T4, IKKα(h) (Homo sapiens, UniProt O15111); conditions: read-out: residual kinase activity IKKα(h)
T4 construct: purchased Eurofins KinaseProfiler
T4 sequence (O15111 1-745): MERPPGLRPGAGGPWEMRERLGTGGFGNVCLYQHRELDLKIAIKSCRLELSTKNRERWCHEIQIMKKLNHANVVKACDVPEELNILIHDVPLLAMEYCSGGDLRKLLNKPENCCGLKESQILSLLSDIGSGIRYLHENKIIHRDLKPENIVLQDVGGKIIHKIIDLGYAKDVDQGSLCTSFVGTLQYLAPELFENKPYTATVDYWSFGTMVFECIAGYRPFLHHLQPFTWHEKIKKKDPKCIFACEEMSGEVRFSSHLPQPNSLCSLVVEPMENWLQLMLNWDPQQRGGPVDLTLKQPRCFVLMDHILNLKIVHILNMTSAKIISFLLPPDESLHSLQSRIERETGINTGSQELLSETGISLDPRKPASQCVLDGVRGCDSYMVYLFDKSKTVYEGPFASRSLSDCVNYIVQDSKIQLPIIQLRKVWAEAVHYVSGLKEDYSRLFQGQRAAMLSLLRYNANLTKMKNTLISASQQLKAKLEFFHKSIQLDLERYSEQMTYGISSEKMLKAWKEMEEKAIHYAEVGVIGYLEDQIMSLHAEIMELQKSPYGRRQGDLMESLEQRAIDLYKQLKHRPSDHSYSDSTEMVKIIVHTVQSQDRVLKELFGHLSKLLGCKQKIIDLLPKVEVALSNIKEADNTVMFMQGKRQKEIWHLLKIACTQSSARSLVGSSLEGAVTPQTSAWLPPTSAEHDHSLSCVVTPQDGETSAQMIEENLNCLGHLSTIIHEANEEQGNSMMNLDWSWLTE
Method in brief: as §1

PKC μ(h) = target: T5, PKC μ(h) (Homo sapiens, UniProt Q15139); conditions: read-out: residual kinase activity PKC μ(h)
T5 construct: purchased Eurofins KinaseProfiler
T5 sequence (Q15139 1-912): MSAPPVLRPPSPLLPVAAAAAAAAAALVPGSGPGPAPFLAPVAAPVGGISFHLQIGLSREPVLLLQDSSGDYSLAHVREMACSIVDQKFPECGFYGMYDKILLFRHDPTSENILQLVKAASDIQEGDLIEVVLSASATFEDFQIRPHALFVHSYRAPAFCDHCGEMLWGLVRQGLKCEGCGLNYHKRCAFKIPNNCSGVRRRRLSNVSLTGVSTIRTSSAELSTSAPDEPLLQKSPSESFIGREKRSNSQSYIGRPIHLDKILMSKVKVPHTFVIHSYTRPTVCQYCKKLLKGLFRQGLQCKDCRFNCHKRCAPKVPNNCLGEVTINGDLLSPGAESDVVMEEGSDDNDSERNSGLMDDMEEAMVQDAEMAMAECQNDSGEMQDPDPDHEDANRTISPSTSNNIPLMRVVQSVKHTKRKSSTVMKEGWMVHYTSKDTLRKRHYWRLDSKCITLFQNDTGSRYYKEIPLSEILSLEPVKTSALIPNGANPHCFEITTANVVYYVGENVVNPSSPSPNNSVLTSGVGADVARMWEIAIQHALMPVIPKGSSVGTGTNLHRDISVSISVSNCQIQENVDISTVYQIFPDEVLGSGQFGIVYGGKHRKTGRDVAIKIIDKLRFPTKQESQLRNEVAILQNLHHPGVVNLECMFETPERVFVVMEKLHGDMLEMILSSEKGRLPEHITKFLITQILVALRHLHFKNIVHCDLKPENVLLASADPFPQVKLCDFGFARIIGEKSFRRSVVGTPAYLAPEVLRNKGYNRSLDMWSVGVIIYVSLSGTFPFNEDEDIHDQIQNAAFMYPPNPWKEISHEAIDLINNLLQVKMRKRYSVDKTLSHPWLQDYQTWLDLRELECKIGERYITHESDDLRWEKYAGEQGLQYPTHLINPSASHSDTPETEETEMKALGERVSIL
Method in brief: as §1

T1 sequence (Q13535 whole entry): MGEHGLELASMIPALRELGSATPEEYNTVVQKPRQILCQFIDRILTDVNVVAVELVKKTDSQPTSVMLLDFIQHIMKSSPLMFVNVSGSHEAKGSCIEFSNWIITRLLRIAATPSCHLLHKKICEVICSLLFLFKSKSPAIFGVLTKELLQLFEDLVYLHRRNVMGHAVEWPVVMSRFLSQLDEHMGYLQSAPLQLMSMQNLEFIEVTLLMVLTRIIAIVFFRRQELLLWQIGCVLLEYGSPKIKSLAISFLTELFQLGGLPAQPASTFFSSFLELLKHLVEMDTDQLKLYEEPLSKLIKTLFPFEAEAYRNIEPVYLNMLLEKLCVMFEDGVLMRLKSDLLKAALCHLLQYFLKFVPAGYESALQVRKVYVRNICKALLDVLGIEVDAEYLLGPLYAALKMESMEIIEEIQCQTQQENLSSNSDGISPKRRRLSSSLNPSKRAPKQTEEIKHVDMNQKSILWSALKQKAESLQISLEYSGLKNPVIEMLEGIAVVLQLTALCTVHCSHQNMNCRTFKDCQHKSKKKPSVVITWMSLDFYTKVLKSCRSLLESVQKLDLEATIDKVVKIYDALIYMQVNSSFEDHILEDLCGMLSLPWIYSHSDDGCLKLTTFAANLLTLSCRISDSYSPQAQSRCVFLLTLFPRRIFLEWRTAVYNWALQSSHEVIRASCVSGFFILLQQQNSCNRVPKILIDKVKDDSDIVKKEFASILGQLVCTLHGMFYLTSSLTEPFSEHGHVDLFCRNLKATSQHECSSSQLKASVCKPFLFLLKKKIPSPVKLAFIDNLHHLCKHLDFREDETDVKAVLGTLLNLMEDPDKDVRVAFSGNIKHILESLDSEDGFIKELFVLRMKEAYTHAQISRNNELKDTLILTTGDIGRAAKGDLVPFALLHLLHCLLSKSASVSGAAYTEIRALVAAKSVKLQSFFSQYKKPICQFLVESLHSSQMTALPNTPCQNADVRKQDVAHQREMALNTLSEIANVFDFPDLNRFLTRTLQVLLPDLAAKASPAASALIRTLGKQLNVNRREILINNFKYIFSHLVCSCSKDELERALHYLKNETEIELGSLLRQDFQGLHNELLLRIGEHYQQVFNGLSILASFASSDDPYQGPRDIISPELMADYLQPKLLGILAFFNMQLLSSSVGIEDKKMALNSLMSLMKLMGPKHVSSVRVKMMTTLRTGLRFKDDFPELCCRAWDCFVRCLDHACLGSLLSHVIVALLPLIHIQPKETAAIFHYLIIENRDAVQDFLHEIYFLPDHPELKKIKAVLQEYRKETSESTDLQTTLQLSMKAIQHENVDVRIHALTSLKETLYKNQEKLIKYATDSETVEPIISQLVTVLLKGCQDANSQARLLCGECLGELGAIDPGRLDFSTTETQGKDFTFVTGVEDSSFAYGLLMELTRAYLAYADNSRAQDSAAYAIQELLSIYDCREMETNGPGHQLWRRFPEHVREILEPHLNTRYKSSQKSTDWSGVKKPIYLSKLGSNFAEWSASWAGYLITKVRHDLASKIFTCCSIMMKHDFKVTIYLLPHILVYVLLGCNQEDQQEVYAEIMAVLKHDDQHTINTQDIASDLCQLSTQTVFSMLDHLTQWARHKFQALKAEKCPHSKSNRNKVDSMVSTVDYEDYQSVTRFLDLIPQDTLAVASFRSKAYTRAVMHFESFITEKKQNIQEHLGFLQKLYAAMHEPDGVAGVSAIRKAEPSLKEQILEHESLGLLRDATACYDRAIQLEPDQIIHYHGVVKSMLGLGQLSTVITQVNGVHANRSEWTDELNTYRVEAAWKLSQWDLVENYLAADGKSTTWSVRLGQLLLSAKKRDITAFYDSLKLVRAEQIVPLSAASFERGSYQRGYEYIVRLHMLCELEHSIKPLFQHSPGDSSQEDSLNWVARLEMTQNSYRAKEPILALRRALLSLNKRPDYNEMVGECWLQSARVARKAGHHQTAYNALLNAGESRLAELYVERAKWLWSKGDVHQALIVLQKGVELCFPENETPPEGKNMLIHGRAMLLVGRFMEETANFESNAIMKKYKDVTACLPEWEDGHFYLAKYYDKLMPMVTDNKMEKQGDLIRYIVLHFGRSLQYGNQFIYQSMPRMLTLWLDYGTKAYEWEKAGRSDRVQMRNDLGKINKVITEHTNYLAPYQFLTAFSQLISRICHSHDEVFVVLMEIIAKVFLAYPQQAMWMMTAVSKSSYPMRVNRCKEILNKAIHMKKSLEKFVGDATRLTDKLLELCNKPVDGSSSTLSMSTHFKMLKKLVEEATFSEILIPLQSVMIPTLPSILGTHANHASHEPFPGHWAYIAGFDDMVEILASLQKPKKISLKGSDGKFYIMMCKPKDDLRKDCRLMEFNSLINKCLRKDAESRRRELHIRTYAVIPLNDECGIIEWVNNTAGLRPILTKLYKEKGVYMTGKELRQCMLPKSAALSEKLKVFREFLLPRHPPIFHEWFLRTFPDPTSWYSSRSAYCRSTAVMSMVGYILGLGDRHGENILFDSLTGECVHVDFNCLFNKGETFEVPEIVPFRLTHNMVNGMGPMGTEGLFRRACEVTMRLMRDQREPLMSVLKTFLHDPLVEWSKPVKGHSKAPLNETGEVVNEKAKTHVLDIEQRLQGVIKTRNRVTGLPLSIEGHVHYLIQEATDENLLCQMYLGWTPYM
T1 sequence (Q8WXE1 whole entry partner): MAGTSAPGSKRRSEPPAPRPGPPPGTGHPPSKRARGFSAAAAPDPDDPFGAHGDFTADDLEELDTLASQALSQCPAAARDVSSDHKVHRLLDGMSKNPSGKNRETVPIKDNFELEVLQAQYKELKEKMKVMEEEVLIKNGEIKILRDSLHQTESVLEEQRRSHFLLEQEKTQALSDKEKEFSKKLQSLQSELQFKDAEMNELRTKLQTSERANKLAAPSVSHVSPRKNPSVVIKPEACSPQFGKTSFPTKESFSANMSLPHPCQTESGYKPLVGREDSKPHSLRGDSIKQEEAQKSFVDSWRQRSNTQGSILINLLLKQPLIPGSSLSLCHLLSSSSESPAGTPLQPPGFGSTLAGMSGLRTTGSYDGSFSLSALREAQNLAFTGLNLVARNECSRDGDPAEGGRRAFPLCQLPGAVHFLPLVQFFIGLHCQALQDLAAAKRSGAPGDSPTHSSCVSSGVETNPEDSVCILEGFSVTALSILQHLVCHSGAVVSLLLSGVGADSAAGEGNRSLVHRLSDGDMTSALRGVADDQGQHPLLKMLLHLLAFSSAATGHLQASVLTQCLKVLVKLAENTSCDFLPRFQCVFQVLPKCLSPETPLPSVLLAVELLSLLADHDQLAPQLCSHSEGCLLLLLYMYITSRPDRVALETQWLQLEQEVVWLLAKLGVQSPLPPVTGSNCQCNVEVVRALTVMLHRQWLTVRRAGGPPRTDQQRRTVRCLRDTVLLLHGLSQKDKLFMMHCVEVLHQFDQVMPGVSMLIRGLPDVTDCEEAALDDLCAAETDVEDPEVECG
T3 sequence (P00533 25-1210 L858R): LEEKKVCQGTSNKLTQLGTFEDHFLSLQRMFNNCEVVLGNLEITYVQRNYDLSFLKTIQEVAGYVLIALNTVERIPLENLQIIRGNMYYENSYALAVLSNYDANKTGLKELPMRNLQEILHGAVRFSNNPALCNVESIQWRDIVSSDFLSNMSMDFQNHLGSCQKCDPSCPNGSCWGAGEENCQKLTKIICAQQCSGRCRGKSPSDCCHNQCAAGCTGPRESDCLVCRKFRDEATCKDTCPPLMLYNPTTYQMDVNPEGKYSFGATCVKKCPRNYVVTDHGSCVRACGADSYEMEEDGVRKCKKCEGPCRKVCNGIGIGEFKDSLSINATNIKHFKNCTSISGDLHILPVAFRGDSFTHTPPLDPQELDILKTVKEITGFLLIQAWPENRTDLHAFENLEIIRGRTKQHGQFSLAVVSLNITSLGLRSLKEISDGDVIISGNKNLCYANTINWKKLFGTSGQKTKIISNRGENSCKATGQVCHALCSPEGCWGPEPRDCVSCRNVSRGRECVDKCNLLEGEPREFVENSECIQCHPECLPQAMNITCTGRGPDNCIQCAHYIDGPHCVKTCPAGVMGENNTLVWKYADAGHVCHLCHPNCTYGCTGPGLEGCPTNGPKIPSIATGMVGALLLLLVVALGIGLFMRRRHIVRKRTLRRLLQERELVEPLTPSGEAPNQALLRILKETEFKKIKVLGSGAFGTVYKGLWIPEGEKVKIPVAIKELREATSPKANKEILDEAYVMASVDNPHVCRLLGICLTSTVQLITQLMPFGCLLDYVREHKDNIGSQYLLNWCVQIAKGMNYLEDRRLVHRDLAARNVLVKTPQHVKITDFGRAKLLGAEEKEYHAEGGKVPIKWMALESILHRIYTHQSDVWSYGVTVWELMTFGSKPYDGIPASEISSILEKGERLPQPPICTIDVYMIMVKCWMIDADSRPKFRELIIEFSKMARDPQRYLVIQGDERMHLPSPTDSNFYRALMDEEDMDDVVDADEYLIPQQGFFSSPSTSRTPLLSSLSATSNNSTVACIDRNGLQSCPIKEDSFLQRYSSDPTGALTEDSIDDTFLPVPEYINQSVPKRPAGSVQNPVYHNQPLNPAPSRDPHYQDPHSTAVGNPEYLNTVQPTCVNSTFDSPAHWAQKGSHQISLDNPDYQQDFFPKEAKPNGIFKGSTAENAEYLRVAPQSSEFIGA

remaining activity at 1 µM (ATR/ATRIP(h)) [%]	remaining activity at 1 µM (DCAMKL3(h)) [%]	remaining activity at 1 µM (EGFR(L858R)(h)) [%]	remaining activity at 1 µM (IKKα(h)) [%]	remaining activity at 1 µM (PKC μ(h)) [%]	Compound
92	42	134	125	100	CNC(=O)c1ccc(Nc2ncc(C(F)(F)F)c(NCc3nccnc3N(C)S(C)(=O)=O)n2)cc1 [VS-6063, Defactinib]
101	98	33	93	109	CONC(=O)c1ccccc1Nc1cc(Nc2cc(C)nn2C(C)C)ncc1Cl [GSK2256098]

Compound	remaining activity at 1 µM (ATR/ATRIP(h)) [%]	remaining activity at 1 µM (DCAMKL3(h)) [%]	remaining activity at 1 µM (EGFR(L858R)(h)) [%]	remaining activity at 1 µM (IKKα(h)) [%]	remaining activity at 1 µM (PKC μ(h)) [%]
CNC(=O)c1cccc(C)c1Nc1nc(Nc2ccc(N3CCN(C4C5CC6CC4CC(O)(C6)C5)CC3)cc2OC)ncc1C(F)(F)F (stereo not drawn) [SJP1602, 2-((2-((4-(4-((2s,5r)-5-hydroxyadamantan-2-yl)piperazin-1-yl)-2-methoxyphenyl)amino)-5-(trifluoromethyl)pyrimidin-4-yl)amino)-N,3-dimethylbenzamide]	97	98	133	130	113
